Test results from PMC3169404, “Inhibitor-bound complexes of dihydrofolate reductase-thymidylate synthase from Babesia bovis” (Acta Crystallographica Section F: Structural Biology and …, 2011).
One block for each molecule: values may come before it.

How the values were obtained:
BbDHFR-TS [1] = biological target: T1, BbDHFR-TS (Babesia bovis, UniProt A7ASX7); experiment: X-ray crystal structure, […] Å, soak; assay type: binding; conditions: in both TS site (with dUMP) and DHFR site (with NADP); 2 mM pemetrexed, 2.0 mM dUMP; PEG 8000, CHES pH 9.5, 289 K
T1 construct: gene BBOV_II000780; full length 1-511, N-terminal 6xHis-Smt tag removed by Ulp1 without remnant, expressed in E. coli BL21 (DE3); DHFR about 1-186, 40-residue linker, TS C-terminal 285 residues
T1 sequence (A7ASX7 1-511): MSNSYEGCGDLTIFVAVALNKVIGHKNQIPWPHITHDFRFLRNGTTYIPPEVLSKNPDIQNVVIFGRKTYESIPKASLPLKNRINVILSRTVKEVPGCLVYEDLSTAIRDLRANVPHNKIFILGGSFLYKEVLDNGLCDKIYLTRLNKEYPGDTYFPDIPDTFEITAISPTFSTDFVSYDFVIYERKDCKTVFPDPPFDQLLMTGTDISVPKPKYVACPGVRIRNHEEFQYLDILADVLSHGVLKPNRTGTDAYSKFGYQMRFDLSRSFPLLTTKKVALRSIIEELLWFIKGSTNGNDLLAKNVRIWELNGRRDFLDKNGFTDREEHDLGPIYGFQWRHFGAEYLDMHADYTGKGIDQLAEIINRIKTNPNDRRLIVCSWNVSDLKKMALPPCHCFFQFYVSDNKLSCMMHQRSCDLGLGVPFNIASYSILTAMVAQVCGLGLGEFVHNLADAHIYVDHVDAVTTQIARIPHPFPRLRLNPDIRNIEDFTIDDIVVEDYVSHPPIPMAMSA

BbDHFR-TS [2] = biological target: T1, BbDHFR-TS; experiment: X-ray crystal structure, […] Å, cocrystallisation; assay type: binding; conditions: in both TS site (with dUMP) and DHFR site (with NADP); 5 mM raltitrexed, 2 mM dUMP, 2 mM NADP; 20 mM MgCl2, HEPES pH 7.5, 289 K
BbDHFR-TS [3] = biological target: T1, BbDHFR-TS; experiment: X-ray crystal structures (soak 3k2h; cocrystallisation 3nrr); assay type: binding; conditions: TS active site; ternary complex with pemetrexed (3k2h) or raltitrexed (3nrr)
BbDHFR-TS [4] = biological target: T1, BbDHFR-TS; experiment: X-ray crystal structures (co-purified 3k2h; cocrystallisation 3nrr); assay type: binding; conditions: DHFR site; with pemetrexed (3k2h) or raltitrexed (3nrr); oxidation state not stated beyond NADP
[5] = biological target: dihydrofolate reductase-thymidylate synthase from B. bovis (Babesia bovis (Texas T2Bo isolate)); experiment: crystal structure; three crystal structures of BbDHFR-TS (apo; with dUMP, NADP and pemetrexed; with dUMP, NADP and raltitrexed); space group P1, homodimer in the asymmetric unit; crystals grown at 289 K, data at 100 K

Molecule: Nc1nc(=O)c2c(CCc3ccc(C(=O)N[C@@H](CCC(=O)O)C(=O)O)cc3)c[nH]c2[nH]1 [PTX, pemetrexed]
X-ray crystal structure, 2.2 Å, soak (BbDHFR-TS [1]): contains the antifolate pemetrexed and dUMP bound in the TS subunit and pemetrexed and NADP

Molecule: Cc1nc2ccc(CN(C)c3ccc(C(=O)N[C@@H](CCC(=O)O)C(=O)O)s3)cc2c(=O)[nH]1 [RTX, raltitrexed]
X-ray crystal structure, 1.8 Å, cocrystallisation (BbDHFR-TS [2]): raltirexed rather than pemetrexed in both folate sites, as well as dUMP and NADP

Molecule: O=c1ccn([C@H]2C[C@H](O)[C@@H](COP(=O)(O)O)O2)c(=O)[nH]1 [dUMP]
X-ray crystal structures (soak 3k2h; cocrystallisation 3nrr) (BbDHFR-TS [3]): contains the antifolate pemetrexed and dUMP bound in the TS subunit

Molecule: NC(=O)c1ccc[n+]([C@@H]2O[C@H](COP(=O)(O)OP(=O)(O)OC[C@H]3O[C@@H](n4cnc5c(N)ncnc54)[C@H](OP(=O)(O)O)[C@@H]3O)[C@@H](O)[C@H]2O)c1 [NADP]
X-ray crystal structures (co-purified 3k2h; cocrystallisation 3nrr) (BbDHFR-TS [4]): pemetrexed and NADP bound in the DHFR subunit

stoichiometry N [5]: 2
Molecule: dihydrofolate reductase-thymidylate synthase from B. bovis (enzyme)
